Measured values as given in ChEMBL document CHEMBL5537205, “Discovery of D25, a Potent and Selective MNK Inhibitor for Sepsis-Associated Acute Spleen Injury” (J Med Chem, 2024).
Active and inactive are the calls of the source.

Tests used:
Mus musculus [1] = assay: Antiinflammatory activity in LPS-induced BALB/c sepsis mouse model assessed as decrease in TNF-alpha level in spleen at 10 to 20 mg/kg, po preadministered with compound for 14 days followed by LPS stimulation and measured after 6 hrs by Western blot analysis; type: functional, organism-based; details: dose 10-20 mg/kg, time 342.0 hrs
[2] = Cmax in Sprague-Dawley rat at 20 mg/kg, po measured after 48 hrs; type: ADME, organism-based; details: in vivo
[3] = biological target: MAP kinase-interacting serine/threonine-protein kinase 1 (Homo sapiens, UniProt Q9BUB5); assay: Inhibition of MNK1 (unknown origin) at 1 uM relative to control
Chain of MAP kinase-interacting serine/threonine-protein kinase 1 (Q9BUB5 whole entry, looked up): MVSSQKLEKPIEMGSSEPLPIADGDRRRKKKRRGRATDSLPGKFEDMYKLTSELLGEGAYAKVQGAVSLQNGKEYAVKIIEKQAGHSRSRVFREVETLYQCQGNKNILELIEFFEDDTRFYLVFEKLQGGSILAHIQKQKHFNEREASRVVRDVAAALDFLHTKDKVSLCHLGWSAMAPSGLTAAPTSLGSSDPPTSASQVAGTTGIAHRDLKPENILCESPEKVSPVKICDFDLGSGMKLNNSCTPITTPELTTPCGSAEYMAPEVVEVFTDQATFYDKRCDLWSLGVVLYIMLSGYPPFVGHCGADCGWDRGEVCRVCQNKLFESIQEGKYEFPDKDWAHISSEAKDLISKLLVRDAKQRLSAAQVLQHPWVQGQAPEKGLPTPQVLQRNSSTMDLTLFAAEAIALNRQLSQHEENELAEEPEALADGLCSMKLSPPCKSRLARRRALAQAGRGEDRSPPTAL

RAW264.7 [4] = assay: Antiinflammatory activity in LPS-induced mouse RAW264.7 cells assessed as increase in Arg1 protein expression by Western blot analysis; type: functional, cell-based; details: dose <= 20.0 µM
[5] = Half-life in Sprague-Dawley rat at 20 mg/kg, po measured after 48 hrs; type: ADME, organism-based; details: in vivo
MV4-11 [6] = assay: Antiproliferative activity against human MV4-11 cells assessed as inhibition of cell proliferation incubated for 48 hrs by CCK8 assay; type: functional, cell-based; details: MV4-11, 48 h
RAW264.7 [7] = assay: Antiinflammatory activity against LPS-induced mouse RAW264.7 cells assessed as decrease in COX-2 expression at 10 to 20 uM by Western blot analysis; type: functional, cell-based; details: dose 10-20 µM
Mus musculus [8] = assay: Antiinflammatory activity in LPS-induced BALB/c sepsis mouse model assessed as reversal of LPS-induced spleen […] index at 20 mg/kg, po preadministered with compound for 14 days followed by LPS stimulation and measured after 6 hrs; type: functional, organism-based; details: time 342.0 hrs
Mus musculus [9] = assay: Antiinflammatory activity in LPS-induced BALB/c sepsis mouse model assessed as increase in GSH level in serum at 20 mg/kg, po preadministered with compound for 14 days followed by LPS stimulation and measured after 6 hrs; type: functional, organism-based; details: time 342.0 hrs
Mus musculus [10] = assay: Antiinflammatory activity in LPS-induced BALB/c sepsis mouse model assessed as decrease in inflammatory cells in spleen at 10 to 20 mg/kg, po preadministered with compound for 14 days followed by LPS stimulation and measured after 6 hrs by H&E staining based analysis; type: functional, organism-based; details: dose 10-20 mg/kg, time 342.0 hrs
RAW264.7 [11] = assay: Antiinflammatory activity against LPS-induced mouse RAW264.7 cells assessed as decrease in iNOS expression at 10 to 20 uM by Western blot analysis; type: functional, cell-based; details: dose 10-20 µM
[12] = Clearance in Sprague-Dawley rat at 5 mg/kg, iv measured after 48 hrs; type: ADME, organism-based; details: in vivo
Mus musculus [13] = assay: Antiinflammatory activity in LPS-induced BALB/c sepsis mouse model assessed as decrease in serum TNF-alpha level at 20 mg/kg, po preadministered with compound for 14 days followed by LPS stimulation and measured after 6 hrs by ELISA; type: functional, organism-based; details: time 342.0 hrs
Mus musculus [14] = assay: Antiinflammatory activity in LPS-induced BALB/c sepsis mouse model assessed as decrease in cell gap in spleen at 10 to 20 mg/kg, po preadministered with compound for 14 days followed by LPS stimulation and measured after 6 hrs by H&E staining based analysis; type: functional, organism-based; details: dose 10-20 mg/kg, time 342.0 hrs
[15] = Half-life in Sprague-Dawley rat at 5 mg/kg, iv measured after 48 hrs; type: ADME, organism-based; details: in vivo
Mus musculus [16] = assay: Antiinflammatory activity in LPS-induced BALB/c sepsis mouse model assessed as reversal of LPS-induced liver […] index at 20 mg/kg, po preadministered with compound for 14 days followed by LPS stimulation and measured after 6 hrs; type: functional, organism-based; details: time 342.0 hrs
RAW264.7 [17] = assay: Antiinflammatory activity against LPS-induced mouse RAW264.7 cells assessed as inhibition of phosphorylated eIF4E expression preincubated for 1 hrs followed by LPS stimulation and measured after 1 hrs by DAPI staining based immunofluorescence analysis; type: functional, cell-based; details: dose 5-20 µM, time 2.0 hrs
Mus musculus [18] = assay: Antiinflammatory activity in LPS-induced BALB/c sepsis mouse model assessed as decrease in serum creatinine level at 10 to 20 mg/kg, po preadministered with compound for 14 days followed by LPS stimulation and measured after 6 hrs; type: functional, organism-based; details: dose 10-20 mg/kg, time 342.0 hrs
Mus musculus [19] = assay: Antiinflammatory activity in LPS-induced BALB/c sepsis mouse model assessed as reversal of LPS-induced kidney renal index at 20 mg/kg, po preadministered with compound for 14 days followed by LPS stimulation and measured after 6 hrs; type: functional, organism-based; details: time 342.0 hrs
[20] = Toxicity in BALB/c mouse assessed as change in body weight at 10 to 20 mg/kg, po administered for 14 days; type: organism-based; details: in vivo, 336 h, dose 10-20 mg/kg, time 14 day
RAW264.7 [21] = assay: Antiinflammatory activity against LPS-induced mouse RAW264.7 cells assessed as decrease in IL-6 expression at 10 to 20 uM by Western blot analysis; type: functional, cell-based; details: dose 10-20 µM
Mus musculus [22] = assay: Antiinflammatory activity in LPS-induced BALB/c sepsis mouse model assessed as decrease in serum IL-6 level at 20 mg/kg, po preadministered with compound for 14 days followed by LPS stimulation and measured after 6 hrs by ELISA; type: functional, organism-based; details: time 342.0 hrs
Mus musculus [23] = assay: Antiinflammatory activity in LPS-induced BALB/c sepsis mouse model assessed as decrease in IL-6 level in spleen at 10 to 20 mg/kg, po preadministered with compound for 14 days followed by LPS stimulation and measured after 6 hrs by Western blot analysis; type: functional, organism-based; details: dose 10-20 mg/kg, time 342.0 hrs
Mus musculus [24] = assay: Antiinflammatory activity in LPS-induced BALB/c sepsis mouse model assessed as decrease in phosphorylated eIF4E level in spleen at 10 to 20 mg/kg, po preadministered with compound for 14 days followed by LPS stimulation and measured after 6 hrs by Western blot analysis; type: functional, organism-based; details: dose 10-20 mg/kg, time 342.0 hrs
Mus musculus [25] = assay: Antiinflammatory activity in LPS-induced BALB/c sepsis mouse model assessed as decrease in serum BUN level at 10 to 20 mg/kg, po preadministered with compound for 14 days followed by LPS stimulation and measured after 6 hrs; type: functional, organism-based; details: dose 10-20 mg/kg, time 342.0 hrs
Mus musculus [26] = assay: Antiinflammatory activity in LPS-induced BALB/c sepsis mouse model assessed as decrease in serum ALT level at 10 to 20 mg/kg, po preadministered with compound for 14 days followed by LPS stimulation and measured after 6 hrs; type: functional, organism-based; details: dose 10-20 mg/kg, time 342.0 hrs
Mus musculus [27] = assay: Antiinflammatory activity in LPS-induced BALB/c sepsis mouse model assessed as decrease in volume of spleen nucleus at 10 to 20 mg/kg, po preadministered with compound for 14 days followed by LPS stimulation and measured after 6 hrs by H&E staining based analysis; type: functional, organism-based; details: dose 10-20 mg/kg, time 342.0 hrs
RAW264.7 [28] = assay: Antiinflammatory activity against LPS-induced mouse RAW264.7 cells assessed as decrease in phosphorylated eIF4E expression at 10 to 20 uM by Western blot analysis; type: functional, cell-based; details: dose 10-20 µM
MV4-11 [29] = assay: Antiproliferative activity against human MV4-11 cells assessed as inhibition of cell proliferation at 20 uM incubated for 48 hrs by CCK8 assay relative to control; type: functional
Mus musculus [30] = assay: Antiinflammatory activity in LPS-induced BALB/c sepsis mouse model assessed as decrease in COX-2 level in spleen at 10 to 20 mg/kg, po preadministered with compound for 14 days followed by LPS stimulation and measured after 6 hrs by Western blot analysis; type: functional, organism-based; details: dose 10-20 mg/kg, time 342.0 hrs
RAW264.7 [31] = assay: Antiinflammatory activity in LPS-induced mouse RAW264.7 cells assessed as reduction in ROS level at 5 to 20 uM pretreated with compound followed by LPS stimulation and measured after 1 hrs by flow cytometric analysis; type: functional, cell-based; details: dose 5-20 µM
[32] = AUC (0 to t) in Sprague-Dawley rat at 5 mg/kg, iv measured after 48 hrs; type: ADME, organism-based; details: in vivo

c1cc(-c2cc(C3CCNCC3)n[nH]2)c2cc[nH]c2n1
Non-Toxic: Activity [20]
3.34 h: half-life [5]
550 nM: IC50 (MV4-11 [6])
98.5%: inhibition at 20 µM (MV4-11 [29])
26.2 ng/mL: Cmax [2]
88.3%: inhibition [3]
1618 ng·h/mL: AUCt [32]
active: Activity (Mus musculus [1]) | Activity (RAW264.7 [4]) Dose-Dependent Effect | Activity (RAW264.7 [7]) | Activity (Mus musculus [8]) | Activity (Mus musculus [9]) | Activity (Mus musculus [10]) | Activity (RAW264.7 [11]) | Activity (Mus musculus [13]) | Activity (Mus musculus [14]) | Activity (Mus musculus [16]) | Activity (RAW264.7 [17]) Dose-Dependent Effect | Activity (Mus musculus [18]) | Activity (Mus musculus [19]) | Activity (RAW264.7 [21]) | Activity (Mus musculus [22]) | Activity (Mus musculus [23]) | Activity (Mus musculus [24]) | Activity (Mus musculus [25]) | Activity (Mus musculus [26]) | Activity (Mus musculus [27]) | Activity (RAW264.7 [28]) | Activity (Mus musculus [30]) | Activity (RAW264.7 [31])
52 mL/min/kg: clearance [12]
5.52 h: half-life [15]
